Test results taken from patent US11179391B2, “Compound with kinase inhibitory activity and preparation method and use thereof” (priority 2017, dated 2021).
pIC50: −log10 of the molar value. Structures can show the parent of a compound that is named as a salt. Where two headings read alike, the source gives them in different places.

Columns and labels:
Format in all cases: biochemical
CDK4/CycD3 = CDK4/CycD3 (Homo sapiens, UniProt P11802); test: Determination of CDK activity (Caliper mobility shift, FAM-P8 peptide): CDK4; details: read-out: CDK4 enzymatic inhibitory activity (IC50)
Sequence of CDK4/CycD3 (P11802 whole entry): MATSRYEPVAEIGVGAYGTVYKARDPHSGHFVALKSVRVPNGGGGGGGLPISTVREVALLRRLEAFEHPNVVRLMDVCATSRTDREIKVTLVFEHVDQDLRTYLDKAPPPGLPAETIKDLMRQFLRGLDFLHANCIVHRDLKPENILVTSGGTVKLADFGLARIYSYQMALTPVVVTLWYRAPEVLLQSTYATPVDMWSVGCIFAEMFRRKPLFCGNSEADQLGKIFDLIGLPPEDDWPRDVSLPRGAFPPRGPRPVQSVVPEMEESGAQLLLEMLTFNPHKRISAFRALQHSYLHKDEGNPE
Sequence of CDK4/CycD3 (P30281 whole entry partner): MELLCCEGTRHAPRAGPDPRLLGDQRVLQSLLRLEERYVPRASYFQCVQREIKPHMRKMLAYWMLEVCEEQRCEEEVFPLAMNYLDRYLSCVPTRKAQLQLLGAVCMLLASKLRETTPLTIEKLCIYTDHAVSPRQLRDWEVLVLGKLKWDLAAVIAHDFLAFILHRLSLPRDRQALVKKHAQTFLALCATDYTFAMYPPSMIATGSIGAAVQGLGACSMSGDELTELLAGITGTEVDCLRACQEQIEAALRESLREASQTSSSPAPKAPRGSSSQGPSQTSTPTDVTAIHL
Experimental: (§1) In vitro, CDK (CDK4, CDK6, CDK1, CDK2, CDK7, and CDK9) kinase activity was tested by the following method.
(§2) CDK and raw materials used here: CDK4/CycD3 (Carna, Cat. No 04-105, Lot. No 10CBS-0429 C, GST-CDK4(1-303end)/GST-CycD3(1-292end)); CDK6/cycD3 (Carna, Cat. No 04-107, Lot. No 09CBS-0622K, GST-CDK6(1-326(end))); CDK1/CyclinB (Millipore, Cat. 14-450k, Lot. No 25729U, His-CDK1+GST-cyclinB); CDK2/CycA2 (Carna, Cat. No 04-103, Lot. No 06CBS-3024, GST-CDK2 (1-298(end))); CDK7/CyclinH/MAT1 (Millipore, Cat. No 14-476M, Lot. No WAB0365-A, His-CDK7+GST-MAT1+cyclinH); CDK9/cyclinTl (Millipore, Cat. No 14-685K, Lot. No. 2476163-A, His-CDK9+cyclinTl); Peptide FAM-P8 (GL Biochem, Cat. No. 112396, Lot. No. P100804-XZ112396); ATP (Sigma, Cat. No. A7699-1G, CAS No. 987-65-5); DMSO (Sigma, Cat. No. D2650, Lot. No. 474382); EDTA (Sigma, Cat. No. E5134, CAS No. 60-00-4); 96-well plate (Corning, Cat. No. 3365, Lot. No. 22008026); 384-well plate (Corning, Cat. No. 3573, Lot. No. 12608008); Staurosporine (Sigma, Cat. No. S4400-1MG, Lot. No. 046K4080).
(§3) 1. Prepared 1× Kinase Buffer and Stop Buffer for the Test
2) 1× Kinase Base Buffer (CDK4).
(§4) 1) Diluted the compound to 50 times of the maximum concentration with 100% DMSO. For example, if the desired maximum inhibitory concentration is 10 μM, then a DMSO solution of 500 μM concentration is required.
(§5) 2) Transferred the compound to a 96-well plate and serially diluted the compound from a 100% DMSO solution at a ratio of 30 μm to 60 μm for a total of 10 concentrations gradients. 3) Transferred 100 μm of 100% DMSO to two empty wells as a no compound control and a no enzyme control.
(§6) 4) Prepared intermediate plate and transferred the compound of 10 μm concentration from the original plate to the intermediate plate, and then 90 μm of 1× kinase buffer was added and mixed by shaking for 10 min.
(§7) 4) Preparing intermediate plate and transferred the compound of […] concentration from the original plate to the intermediate plate, and then 90 μm of 1× kinase buffer was added and mixed by shaking for 10 min.
(§8) 1) Transferred 5 μm of each compound from the 96-well intermediate plate to a 384-well plate. For example, A1 of the 96-well plate was transferred to A1 and A2 of the 384-well plate. A2 of the 96-well plate was transferred to A3 and A4 of the 384-well plate, and so on.
(§9) 1) Prepared a 2.5× enzyme solution: added kinase into 1× kinase base buffer.
(§10) 2) Prepared a 2.5× peptide solution: added FAM-labeled peptide and ATP into the 1× kinase base buffer.
(§11) 3) Transferred the 2.5× enzyme solution to the assay plate: Assay plate already contained 5 μm of 10% DMSO and transferred 10 μm of 2.5× enzyme solution to each well.
(§12) 4) Incubated at room temperature for 10 min.
(§13) 5) Transferred the 2.5× peptide solution to the assay plate: added 10 μm of 2.5× peptide solution to each well of the 384-well assay plate.
(§14) 6) Kinase reaction and termination: incubated at 28° C. for a specified period and added 25 μm of stop buffer to stop the reaction.
(§15) 5. Caliper Reading: Collect Data on Caliper.
(§16) 1) Copied conversion data from Caliper program and Converted conversion values to inhibition values: Inhibition rate (%)=(1−OD value of the compound-OD value of the control well)/(OD value of the control empty-OD value of the control well)*100%.
(§17) 2) Fitted the data in XLFit excel add-in version 4.3.1 to give the corresponding IC50 values.

CDK6/cycD3 = CDK6/cycD3 (Homo sapiens, UniProt Q00534); test: Determination of CDK activity (Caliper mobility shift, FAM-P8 peptide): CDK6; details: read-out: CDK6 enzymatic inhibitory activity (IC50)
Sequence of CDK6/cycD3 (Q00534 whole entry): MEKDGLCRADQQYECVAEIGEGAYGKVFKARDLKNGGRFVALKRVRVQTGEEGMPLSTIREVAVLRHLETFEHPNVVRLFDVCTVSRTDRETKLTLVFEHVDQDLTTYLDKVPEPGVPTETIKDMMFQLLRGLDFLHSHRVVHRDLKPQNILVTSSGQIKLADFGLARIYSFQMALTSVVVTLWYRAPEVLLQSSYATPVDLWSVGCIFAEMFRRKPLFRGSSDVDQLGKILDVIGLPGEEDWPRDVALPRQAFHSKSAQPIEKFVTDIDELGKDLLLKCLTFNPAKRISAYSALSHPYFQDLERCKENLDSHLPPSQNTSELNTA
Sequence of CDK6/cycD3 (P30281 whole entry partner): as the sequence (P30281 whole entry partner) above
Experimental: as §1, §2, §3
(§18) 1) 1× Kinase Base Buffer (CDK1, 2, and 6).
as §4, §5, §6, §7, §8, §9, §10, §11, §12, §13, §14, §15, §16, §17

CDK1/CyclinB = CDK1/CyclinB (Homo sapiens, UniProt P06493); test: Determination of CDK activity (Caliper mobility shift, FAM-P8 peptide): CDK1; details: read-out: CDK1 enzymatic inhibitory activity (IC50)
Sequence of CDK1/CyclinB (P06493 whole entry): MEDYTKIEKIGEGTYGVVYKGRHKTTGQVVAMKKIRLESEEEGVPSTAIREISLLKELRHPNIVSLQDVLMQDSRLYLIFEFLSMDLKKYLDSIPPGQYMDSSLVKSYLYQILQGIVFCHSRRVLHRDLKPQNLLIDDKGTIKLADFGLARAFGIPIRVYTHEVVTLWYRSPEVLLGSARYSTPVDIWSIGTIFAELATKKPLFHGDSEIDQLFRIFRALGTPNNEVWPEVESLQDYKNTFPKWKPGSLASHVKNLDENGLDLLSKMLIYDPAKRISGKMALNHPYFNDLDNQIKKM
Sequence of CDK1/CyclinB (P14635 whole entry partner): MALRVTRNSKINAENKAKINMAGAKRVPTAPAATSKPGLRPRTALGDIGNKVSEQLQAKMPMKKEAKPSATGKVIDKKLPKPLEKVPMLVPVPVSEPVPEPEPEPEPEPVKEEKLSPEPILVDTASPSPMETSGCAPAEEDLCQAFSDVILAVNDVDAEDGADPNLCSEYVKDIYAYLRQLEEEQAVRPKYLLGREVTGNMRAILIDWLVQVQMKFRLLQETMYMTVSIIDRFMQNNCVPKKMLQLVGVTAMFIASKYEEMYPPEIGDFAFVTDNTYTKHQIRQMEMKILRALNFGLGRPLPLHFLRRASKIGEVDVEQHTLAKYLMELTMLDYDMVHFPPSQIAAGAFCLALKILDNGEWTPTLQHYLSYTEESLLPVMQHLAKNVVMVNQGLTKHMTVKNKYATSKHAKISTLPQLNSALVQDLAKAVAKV
Experimental: as §1, §3, §18, §4, §5
(§19) 1) Transferred 5 μm of each compound from the 96-well intermediate plate to a 384-well plate. […] A2 of the 96-well plate was transferred to A3 and A4 of the 384-well plate, and so on.
as §9, §10, §11, §12, §13, §14, §15, §16, §17

CDK2/CycA2 = CDK2/CycA2 (Homo sapiens, UniProt P24941); test: Determination of CDK activity (Caliper mobility shift, FAM-P8 peptide): CDK2; details: read-out: CDK2 enzymatic inhibitory activity (IC50)
Experimental: as §1, §3, §18, §4, §5, §19, §9, §10, §11, §12, §13, §14, §15, §16, §17

CDK7/CyclinH/MAT1 = CDK7/CyclinH/MAT1 (Homo sapiens, UniProt P50613); test: Determination of CDK activity (Caliper mobility shift, FAM-P8 peptide): CDK7; details: read-out: CDK7 enzymatic inhibitory activity (IC50)
Sequence of CDK7/CyclinH/MAT1 (P50613 whole entry): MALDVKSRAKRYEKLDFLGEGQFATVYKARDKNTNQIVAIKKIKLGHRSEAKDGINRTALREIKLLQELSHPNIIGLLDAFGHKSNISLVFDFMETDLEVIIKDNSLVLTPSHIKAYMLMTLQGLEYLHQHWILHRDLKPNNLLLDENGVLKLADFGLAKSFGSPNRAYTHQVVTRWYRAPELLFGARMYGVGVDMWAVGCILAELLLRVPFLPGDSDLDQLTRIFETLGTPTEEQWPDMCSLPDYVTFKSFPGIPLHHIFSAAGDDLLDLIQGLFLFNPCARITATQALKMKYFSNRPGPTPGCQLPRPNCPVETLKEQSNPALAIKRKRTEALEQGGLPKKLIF
Sequence of CDK7/CyclinH/MAT1 (P51946 whole entry partner): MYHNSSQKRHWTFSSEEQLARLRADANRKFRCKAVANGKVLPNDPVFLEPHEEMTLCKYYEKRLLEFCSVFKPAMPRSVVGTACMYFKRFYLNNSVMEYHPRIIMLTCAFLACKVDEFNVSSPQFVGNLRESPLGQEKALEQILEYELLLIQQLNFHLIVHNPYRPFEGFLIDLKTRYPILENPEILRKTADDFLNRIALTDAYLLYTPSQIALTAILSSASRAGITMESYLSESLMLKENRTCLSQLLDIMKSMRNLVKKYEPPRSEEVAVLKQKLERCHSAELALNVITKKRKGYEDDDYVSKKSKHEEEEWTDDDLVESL
Sequence of CDK7/CyclinH/MAT1 (P51948 whole entry partner): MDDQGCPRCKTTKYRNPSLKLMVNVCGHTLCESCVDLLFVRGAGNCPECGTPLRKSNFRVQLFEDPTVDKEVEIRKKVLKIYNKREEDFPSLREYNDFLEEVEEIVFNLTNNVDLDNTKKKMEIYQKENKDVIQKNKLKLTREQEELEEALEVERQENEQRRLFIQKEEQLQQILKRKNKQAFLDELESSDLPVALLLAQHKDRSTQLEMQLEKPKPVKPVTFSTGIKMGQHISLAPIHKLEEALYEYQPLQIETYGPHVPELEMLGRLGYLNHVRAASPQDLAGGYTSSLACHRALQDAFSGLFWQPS
Experimental: as §1, §2, §3
(§20) 3) 1× Kinase Base Buffer (CDK7 and 9).
as §4, §5, §6, §7, §8, §9, §10, §11, §12, §13, §14, §15, §16, §17

CDK9/cyclinTl = CDK9/cyclinTl (Homo sapiens, UniProt P50750); test: Determination of CDK activity (Caliper mobility shift, FAM-P8 peptide): CDK9; details: read-out: CDK9 enzymatic inhibitory activity (IC50)
Sequence of CDK9/cyclinTl (P50750 whole entry): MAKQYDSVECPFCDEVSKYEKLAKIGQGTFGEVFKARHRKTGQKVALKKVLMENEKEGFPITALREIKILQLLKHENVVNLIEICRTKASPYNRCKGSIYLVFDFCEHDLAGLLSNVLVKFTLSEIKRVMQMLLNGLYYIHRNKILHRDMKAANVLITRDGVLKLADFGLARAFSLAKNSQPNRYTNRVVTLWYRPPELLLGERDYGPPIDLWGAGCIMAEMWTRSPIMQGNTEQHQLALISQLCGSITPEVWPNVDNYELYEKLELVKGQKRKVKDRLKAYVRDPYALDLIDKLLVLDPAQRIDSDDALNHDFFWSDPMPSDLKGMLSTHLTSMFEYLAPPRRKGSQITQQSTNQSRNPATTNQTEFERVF
Sequence of CDK9/cyclinTl (O60563 whole entry partner): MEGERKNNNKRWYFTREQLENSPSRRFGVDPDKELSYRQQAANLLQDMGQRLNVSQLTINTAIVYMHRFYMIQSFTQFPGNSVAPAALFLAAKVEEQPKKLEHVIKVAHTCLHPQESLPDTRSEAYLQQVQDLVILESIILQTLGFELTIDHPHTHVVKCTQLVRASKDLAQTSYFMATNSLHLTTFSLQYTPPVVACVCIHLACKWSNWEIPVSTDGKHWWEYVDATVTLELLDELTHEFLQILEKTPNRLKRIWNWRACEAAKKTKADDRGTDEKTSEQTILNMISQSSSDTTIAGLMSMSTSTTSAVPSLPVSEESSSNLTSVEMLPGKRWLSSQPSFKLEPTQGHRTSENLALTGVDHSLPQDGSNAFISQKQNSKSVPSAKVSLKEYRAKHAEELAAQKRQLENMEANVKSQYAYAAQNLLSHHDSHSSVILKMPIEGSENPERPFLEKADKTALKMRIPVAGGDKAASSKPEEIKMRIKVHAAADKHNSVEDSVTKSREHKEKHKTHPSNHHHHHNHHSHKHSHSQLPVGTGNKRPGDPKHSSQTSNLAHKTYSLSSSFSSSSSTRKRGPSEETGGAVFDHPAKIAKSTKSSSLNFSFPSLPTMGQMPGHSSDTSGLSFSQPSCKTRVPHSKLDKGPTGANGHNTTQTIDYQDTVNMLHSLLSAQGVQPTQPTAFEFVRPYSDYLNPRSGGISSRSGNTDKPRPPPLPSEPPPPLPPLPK
Experimental: as §1, §3, §20, §4, §5, §19, §9, §10, §11, §12, §13, §14, §15, §16, §17

pIC50 (CDK4/CycD3; CDK4/CycD3)	pIC50 (CDK6/cycD3; CDK6/cycD3)	pIC50 (CDK1/CyclinB; CDK1/CyclinB)	pIC50 (CDK2/CycA2; CDK2/CycA2)	pIC50 (CDK7/CyclinH/MAT1; CDK7/CyclinH/MAT1)	pIC50 (CDK9/cyclinTl; CDK9/cyclinTl)	pIC50 (CDK4/CycD3)	pIC50 (CDK6/cycD3)	pIC50 (CDK1/CyclinB)	pIC50 (CDK2/CycA2)	pIC50 (CDK7/CyclinH/MAT1)	pIC50 (CDK9/cyclinTl)	Structure (SMILES)
6.30 to 7.00	6.30 to 7.00	6.00 to 6.30	6.30 to 7.00	5.00 to 6.00	6.30 to 7.00							C=C(c1ccc(Nc2ncc(F)c(-c3cc(F)c4nc(C)n(C(C)C)c4c3)n2)nc1)C1CCNCC1 [Example 34]
> 7.00	6.30 to 7.00	6.30 to 7.00	> 7.00	5.00 to 6.00	> 7.00							C=C(c1ccc(Nc2ncc(F)c(-c3cc(F)c4nc(C)n(C(C)C)c4c3)n2)nc1)C1CCN(C)CC1 [Example 35]
6.30 to 7.00	6.30 to 7.00	6.00 to 6.30	6.00 to 6.30	5.00 to 6.00	6.00 to 6.30							C=C(c1ccc(Nc2ncc(F)c(-c3cc(F)c4nc(C)n(C(C)C)c4c3)n2)nc1)N1CCN(CC)CC1 [Example 36]
						6.30 to 7.00	6.30 to 7.00	6.30 to 7.00	> 7.00	6.30 to 7.00	6.30 to 7.00	Cc1nc2c(F)cc(-c3nc(Nc4ccc(C(O)C5CCNCC5)cn4)ncc3F)cc2n1C(C)C (stereo not drawn) [Example 42, (6-((5-Fluoro-4-(4-fluoro-1-isopropyl-2-methyl-1H-benzo[d]imidazol-6-yl)pyrimidin-2-yl)amino)pyridin-3-yl)(piperidin-4-yl) methanol hydrochloride]
> 7.00	6.30 to 7.00	6.30 to 7.00	6.30 to 7.00	6.00 to 6.30	6.30 to 7.00							Cc1nc2c(F)cc(-c3nc(Nc4ccc([C@H](O)C5CCNCC5)cn4)ncc3F)cc2n1C(C)C [Example 43]
6.30 to 7.00	6.30 to 7.00	6.30 to 7.00	6.30 to 7.00	6.30 to 7.00	6.00 to 6.30							Cc1nc2c(F)cc(-c3nc(Nc4ccc([C@@H](O)C5CCNCC5)cn4)ncc3F)cc2n1C(C)C [Example 44]
> 7.00	6.30 to 7.00	6.30 to 7.00	> 7.00	5.00 to 6.00	6.30 to 7.00							CCN1CCC([C@@H](OC)c2ccc(Nc3ncc(F)c(-c4cc(F)c5nc(C)n(C(C)C)c5c4)n3)nc2)CC1 [Example 45]
> 7.00	6.30 to 7.00	6.30 to 7.00	> 7.00	5.00 to 6.00	6.30 to 7.00							CCN1CCC([C@H](OC)c2ccc(Nc3ncc(F)c(-c4cc(F)c5nc(C)n(C(C)C)c5c4)n3)nc2)CC1 [Example 46]
> 7.00	> 7.00	6.30 to 7.00	6.30 to 7.00	6.30 to 7.00	6.30 to 7.00							Cc1nc2c(F)cc(-c3nc(Nc4ccc([C@H](O)C5CCN(C)CC5)cn4)ncc3F)cc2n1C(C)C [Example 49]
> 7.00	6.30 to 7.00	> 7.00	> 7.00	6.30 to 7.00	6.30 to 7.00							Cc1nc2c(F)cc(-c3nc(Nc4ccc([C@@H](O)C5CCN(C)CC5)cn4)ncc3F)cc2n1C(C)C [Example 50]
